Source: publication PMC8686256, “DZNep promotes mouse bone defect healing via enhancing both osteogenesis and osteoclastogenesis” (Stem Cell Research & Therapy, 2021)

Assays:
bone defect mice = assay: Tibia cortical and trabecular bone defect mice model; assay type: in vivo, mouse
From the text: The tibia cortical and trabecular bone defect mice model was established to determine the bone healing effect of DZNep in vivo. Firstly, all mice (twelve 8-week-old C57/BL6 male mice (approximate weight 20 ± 2 g)) were anesthetized by 2% isoflurane, the right tibia was exposed, and muscles were dissociated. Then a pilot hole was first made with a burr drill point in the proximal tibia, but away from the growth plate to some extent. Then the hole was enlarged with a 1 mm […]. Afterward, the mice were average divided into two groups: (1) DZNep group (injection with 100 μg/kg DZNep); (2) Sham group (injection with 1 × PBS). Two days after operation, 1 × PBS for sham group and DZNep for treatment group were intraperitoneally injected every two days during next two week. All mice were finally euthanized after experiment, and whole tibia bones were separated. After fixed in 4% paraformaldehyde for 24 h, the 75% ethanol was then used to soak the specimens for further histological and radiographic analysis. High-resolution micro-CT (μCT-100, SCANCO Medical AG, Switzerland) was used to perform the micro-computed tomography (CT) scanning. […] For analysis bone mass of defect section, a region of defect section trabecular bone was contoured, starting from the first defect section level away from proximal end of the […] growth plate. Femoral trabecular bone was thresholded at 211 per mille. The indicators of bone microstructure (bone volume/tissue volume (BV/TV), trabecular thickness (Tb.Th), trabecula number (Tb.N), trabecula separation (Tb.Sp), and bone surface/ bone volume (BS/BV)) were measured by software (Version: 6.5-3, SCANCO Medical AG, Switzerland) through evaluating and analyzing the three-dimensional region of interest (ROI). After fixing in 4% paraformaldehyde for 48 h, the 10% EDTA was used to decalcify the fixed tibias for 21 days. Then the tissues were processed by dehydrating in different concentrations of ethanol, infiltrating with xylene, and embedding with paraffin. Hematoxylin and eosin (H&E) and TRAP staining were then performed on these prepared histological sections. As for immunofluorescent staining, slices were processed in a sequence of deparaffinization, hydration, antigen retrieval, permeabilization, blocking, primary antibody incubation (OCN, USA, Affinity; dilution 1:100), secondary antibody incubation, and nuclear staining finally. Immunohistochemical (IHC) staining was accomplished with antibodies against OCN (USA, Affinity; dilution 1:100). The specimens were observed and photographed under the high-quality microscope (Leica DM4000B). Each sample's number of osteoclasts and TRAP-positive multinucleated osteoclasts per field (Oc.S/BS) were calculated.

primary BMSC = assay: Osteoblast differentiation and mineralization, ALP and Alizarin red staining; assay type: cell-based, mouse
Procedure: Primary BMSC were obtained from the whole bone marrow of male 4-week-old C57BL/6 mice. In brief, cells were extracted from the tibiae and femurs bone marrow and suspended in α-MEM supple with 10% FBS, and 1% penicillin/streptomycin. Then, the cell cultures were kept in a humid environment at 37 °C with 5% CO2 until they reached 90% confluence. For further identifying the effect of DZNep on osteogenesis, bone marrow-derived mouse mesenchymal stem cells were firstly seeded into the 48-well plates for one day at a density of 5 × 10^4 cells/well. Then the medium was changed by low-glucose DMEM with 15% FBS, 5 mM β-glycerophosphate, 50 µg/mL ascorbic acid, 10-7 mM dexamethasone, and various concentrations of DZNep (0, 12.5, 25, 50, and 100 nM). The medium was changed twice a week. For EZH2 gene knockdown studies, the cells were transfected with virus constructed of different EZH2 short hairpin RNA (shRNA) and negative control shRNA by mixed with polybrene (final concentration of 10ug/ml) for 48 h. The transfection mixture was then replaced by complete α-MEM added with puromycin for 24 h, and BMSCs were then seeded into a 48-well plate at the density of 5 × 10^4 cells/well with complete α-MEM for 24 h. The culture medium was then replaced by low-glucose DMEM with 15% FBS, 5 mM β-glycerophosphate, 50 µg/mL ascorbic acid, 10-7 mM dexamethasone. The medium was changed twice a week. […]

[1] = 100 μg/kg i.p. every two days, two weeks

Nc1nccc2c1ncn2C1C=C(CO)C(O)C1O (centres unmarked) [DZNep, 3-Deazaneplanocin]
osteocalcin (OCN) expression in vivo (bone defect mice; 100 μg/kg i.p.): increased | BV/TV (micro-CT) (bone defect mice; [1]): prominently increased | trabecular thickness (Tb.th) (micro-CT) (bone defect mice; [1]): prominently increased | bone mineral density (X-ray) (bone defect mice; 100 μg/kg i.p. every two days, two weeks, vs control): more bone mineral density | bone repair (H&E-stained sections) (bone defect mice; 100 μg/kg i.p., vs control): more significant bone repair | number of TRAP-positive multinucleated osteoclasts in vivo (bone defect mice; 100 μg/kg i.p., vs vehicle-treated group): more number of TRAP-positive multinucleated osteoclasts | osteoblast differentiation (ALP staining) (primary BMSC; 7 days, especially 50 nM): promoted | osteoblast mineralization (Alizarin red staining) (primary BMSC; 28 days): enhanced in a dose-dependent manner
